Series [1] deals with MDA-MB-231. Description: Potency index, ratio of IC50 of BTP to ratio of IC50 of compound for antiproliferative activity against human MDA-MB-231 cells assessed as reduction in cell viability incubated for 48 hrs by MTT assay. The format is functional. (In general: Tetrazolium assays rely on reduction of a dye to a coloured formazan, in cell work by metabolically active cells.)

The test system of series [2] is MDA-MB-231. Description: Induction of apoptosis in human MDA-MB-231 cells assessed as viable cells at 4 uM incubated for 24 hrs by annexinV-FITC and propidium iodide staining based flow cytometric analysis (reference value: 95.1%). It is filed as functional. To be noted: MDA-MB-231, 24 h, read-out: Activity. In general terms: A flow cytometer gives signals particle by particle.

For series [3], the system named is MDA-MB-231. As to the kind of experiment: Induction of apoptosis in human MDA-MB-231 cells assessed as early apoptotic cells at 4 uM incubated for 24 hrs by annexinV-FITC and propidium iodide staining based flow cytometric analysis (reference value: 3.2%). It is filed as functional.
Series [4] relates to MDA-MB-231. Description: Induction of apoptosis in human MDA-MB-231 cells assessed as necrotic cells at 4 uM incubated for 24 hrs by annexinV-FITC and propidium iodide staining based flow cytometric analysis (reference value: 0.8%). It is filed as functional.
Series [5] concerns MDA-MB-231. As to the kind of experiment: Induction of apoptosis in human MDA-MB-231 cells assessed as viable cells at 1 uM incubated for 24 hrs by annexinV-FITC and propidium iodide staining based flow cytometric analysis (reference value: 95.1%). It is filed as functional. The settings on record: MDA-MB-231, 24 h, read-out: Activity.
Series [6] has as its system MDA-MB-231. As to the kind of experiment: Induction of mitochondrial membrane depolarization in human MDA-MB-231 cells assessed as increase in green fluorescence incubated for 24 hrs JC-1 staining based flow cytometric analysis. It is filed as functional, cell-based.
Series [7] deals with MDA-MB-231. Description: Induction of apoptosis in human MDA-MB-231 cells assessed as late apoptotic cells at 2 uM incubated for 24 hrs by annexinV-FITC and propidium iodide staining based flow cytometric analysis (reference value: 1.0%). It is filed as functional.
Series [8] deals with MDA-MB-231. As to the kind of experiment: Induction of apoptosis in human MDA-MB-231 cells assessed as viable cells at 2 uM incubated for 24 hrs by annexinV-FITC and propidium iodide staining based flow cytometric analysis (reference value: 95.1%). It is filed as functional. The settings on record: MDA-MB-231, 24 h, read-out: Activity.
Series [9] deals with MDA-MB-231. Description: Induction of apoptosis in human MDA-MB-231 cells assessed as late apoptotic cells at 1 uM incubated for 24 hrs by annexinV-FITC and propidium iodide staining based flow cytometric analysis (reference value: 1.0%). It is filed as functional.
In series [10] the test system is MDA-MB-231. As to the kind of experiment: Induction of apoptosis in human MDA-MB-231 cells incubated for 24 hrs by annexinV-FITC and propidium iodide staining based flow cytometric analysis. The format is functional, cell-based.
The test system of series [11] is 4T1. As to the kind of experiment: Antitumor activity against mouse 4T1 cells implanted in BALB/c mouse assessed as reduction in tumor volume at 20 mg/kg, ip for 14 days. It is filed as functional. The settings on record: 4T1, ip, 336 h.
For a further series, the system named is HepG2. Description: Antiproliferative activity against human HepG2 cells assessed as reduction in cell viability incubated for 48 hrs by MTT assay. The format is functional, cell-based. The settings on record: HepG2, 48 h.
For series [12], the system named is MDA-MB-231. Description: Induction of apoptosis in human MDA-MB-231 cells assessed as necrotic cells at 2 uM incubated for 24 hrs by annexinV-FITC and propidium iodide staining based flow cytometric analysis (reference value: 0.8%). The format is functional.
Series [13] concerns 4T1. As to the kind of experiment: Antitumor activity against mouse 4T1 cells implanted in BALB/c mouse assessed as reduction in tumor weight at 20 mg/kg, ip for 14 days. It is filed as functional. The settings on record: 4T1, ip, 336 h.
In series [14] the target is Signal transducer and activator of transcription 3 (Homo sapiens) (UniProt P40763). As to the kind of experiment: Inhibition of STAT3 in human MDA-MB-231 cells assessed as decrease in STAT3 phosphorylation at Ser727 residue incubated for 24 hrs by Western blot analysis. It is filed as cell-based. In general terms: In western blotting, separated proteins are transferred to a membrane and probed.
Sequence of Signal transducer and activator of transcription 3 (Homo sapiens) (P40763 whole entry): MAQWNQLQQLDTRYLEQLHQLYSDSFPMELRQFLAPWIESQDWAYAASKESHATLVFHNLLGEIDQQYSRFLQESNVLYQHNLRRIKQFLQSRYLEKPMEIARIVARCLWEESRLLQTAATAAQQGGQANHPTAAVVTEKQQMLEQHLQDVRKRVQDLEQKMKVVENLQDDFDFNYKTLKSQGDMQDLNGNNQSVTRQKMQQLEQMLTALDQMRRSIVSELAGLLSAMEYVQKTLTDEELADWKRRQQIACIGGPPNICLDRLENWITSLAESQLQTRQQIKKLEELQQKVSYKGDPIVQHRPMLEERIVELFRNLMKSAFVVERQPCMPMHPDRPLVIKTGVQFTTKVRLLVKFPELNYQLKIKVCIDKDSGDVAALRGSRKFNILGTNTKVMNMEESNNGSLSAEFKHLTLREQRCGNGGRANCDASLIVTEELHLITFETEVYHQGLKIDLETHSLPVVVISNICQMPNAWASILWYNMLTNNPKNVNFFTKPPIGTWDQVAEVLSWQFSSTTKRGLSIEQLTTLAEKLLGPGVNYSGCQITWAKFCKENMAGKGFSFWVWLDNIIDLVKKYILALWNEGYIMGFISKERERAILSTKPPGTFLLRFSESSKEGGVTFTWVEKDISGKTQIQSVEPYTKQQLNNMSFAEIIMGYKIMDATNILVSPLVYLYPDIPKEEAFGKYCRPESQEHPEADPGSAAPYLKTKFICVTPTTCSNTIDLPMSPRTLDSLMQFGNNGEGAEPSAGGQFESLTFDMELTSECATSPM

For series [15] the target is unchanged. As to the kind of experiment: Inhibition of STAT3 in human MDA-MB-231 cells assessed as decrease in STAT3-DNA binding at 1 to 4 uM incubated for 24 hrs by electrophoretic mobility shift assay. It is filed as cell-based.
In series [16] the test system is MDA-MB-231. As to the kind of experiment: Inhibition of colony formation in human MDA-MB-231 cells at 2 uM treated for 24 hrs and measured after 10 to 14 days by crystal violet staining based assay. It is filed as functional.
For series [17], the system named is MDA-MB-231. Description: Induction of apoptosis in human MDA-MB-231 cells assessed as early apoptotic cells at 1 uM incubated for 24 hrs by annexinV-FITC and propidium iodide staining based flow cytometric analysis (reference value: 3.2%). It is filed as functional.
In series [18] the test system is MDA-MB-231. Description: Induction ROS accumulation in human MDA-MB-231 cells after 24 hrs by DCFH-DA staining-based flow cytometric analysis. The format is functional, cell-based.
For series [19], the system named is MDA-MB-231. As to the kind of experiment: Induction of apoptosis in human MDA-MB-231 cells assessed as necrotic cells at 1 uM incubated for 24 hrs by annexinV-FITC and propidium iodide staining based flow cytometric analysis (reference value: 0.8%). The format is functional.
Series [20] is described as follows: Drug accumulation in mitochondria of human MDA-MB-231 cells at 2 uM incubated for 60 mins by mitotracker red staining based confocal microscopy. The format is ADME. To be noted: mda-mb-231, 1 h.
Series [21] deals with MDA-MB-231. As to the kind of experiment: Antiproliferative activity against human MDA-MB-231 cells assessed as reduction in cell viability incubated for 48 hrs by MTT assay. The format is functional, cell-based. The settings on record: MDA-MB-231, 48 h.
In the next series the test system is L02. As to the kind of experiment: Cytotoxicity against human LO2 cells assessed as reduction in cell viability incubated for 48 hrs by MTT assay. It is filed as cell-based. The settings on record: L02, 48 h.
The subject of the next series is MCF7. Description: Antiproliferative activity against human MCF7 cells assessed as reduction in cell viability incubated for 48 hrs by MTT assay. To be noted: MCF7, 48 h. It is filed as functional, cell-based.

Structures are written as SMILES. Activity calls are given as the source filed them. No cut-off for these calls is given here.

Turning to `CCN(CC)c1ccc2cc(C(=O)N3CCN(C(=O)C4=Cc5c(Br)cccc5S4(=O)=O)CC3)c(=O)oc2c1`, the “Ratio IC50” value in the series on MDA-MB-231 [1] is listed as 4.6 - 19. In addition, the viability at 4 µM in the series on MDA-MB-231 [2] came to 77.5%. For the same compound, the Activity in the series on MDA-MB-231 [3] was 15.6%; with MDA-MB-231 [4], 2.1%; in the series with MDA-MB-231 [6] it was “Dose-dependent effect”; with MDA-MB-231 [7], 1.8%; in the series with MDA-MB-231 [9], 1.2%; with MDA-MB-231 [10] it was “Dose-dependent effect”. The Activity is 1.6% in the series on MDA-MB-231 [12], 5.4% with MDA-MB-231 [17], “Dose-dependent effect” with MDA-MB-231 [18] and 1.3% in the series on MDA-MB-231 [19]. The viability at 1 µM in the series with MDA-MB-231 [5] was 92%. Further, in the series on MDA-MB-231 [8], the viability at 2 µM worked out at 89.3%. Besides, the inhibition in vivo (commonly how much of the control response was suppressed) at 20 mg/kg in the series on 4T1 [11] stood at 61.2%; in the series on 4T1 [13], 56.9%. For the same compound, the half-maximal inhibitory concentration (IC50) (commonly the point on the concentration scale where inhibition reaches its midpoint) in the series on HepG2 came to 2.88 µM; with MDA-MB-231 [21] it was 1.43 µM; in the series with L02, 35.6 µM; in the series with MCF7, 3.33 µM. Besides, the inhibition – broadly, the share of the control response that was lost under treatment – in series [14] was “Dose-dependent effect”. Moreover, the inhibition result in series [15] was “Active”. For the same compound, in the series on MDA-MB-231 [16], 2 µM produced 100% inhibition. For the same compound, the Drug uptake entry in series [20] is listed as “Active”.
